Test results from patent publication US20090069442A1, “Therapeutic Agent for Sensory Abnormality” (priority 2005, published 2009).

Key:
[1] = system: sciatic nerve entrapment model rats (Bennett model rats); assay: Injury-preventive effect in partial nerve injury models, paw pressure (Randall-Selitto) method; assay type: in vivo, Spraugue-Dawley rats
Description: (§1) For a hyperalgesia model animal, sciatic nerve entrapment model rats (Bennett model rats) serving as partial nerve injury models, were used. That is, four-week-old male Spraugue-Dawley rats (Japan SLC, Inc.) were housed under a constant temperature and humidity condition for a week. Then, under anesthesia with pentobarbital (50 mg/kg), the sciatic nerve in the left hind paw was stripped from tissue, and raised using tweezers to slightly stretch the axon part. […] The right hind paw was left untreated and used as a normal paw. The operated site was disinfected with Isodine everyday in the first post-operative week to prevent infection.
As the test substance, compound 24 synthesized in Preparation Example 24 was used.
The nerve-injured paw (operated side) and the normal paw (untreated side) of each individual were previously subjected to an analgesic test, subsequently followed by Bennett operation. Furthermore, a single dose of the test substance (8 mg/kg) was intraperitoneally administered from the day of the operation, everyday for a week. The control group was administered with the vehicle of the test substance during the same period. After one week from the start of administration, the nerve injured paw (operated side) and the normal paw (untreated side) of each rat were again subjected to an analgesic test. […]

[2] = system: sciatic nerve entrapment model rats (Bennett model rats); assay: Analgesic effect in partial nerve injury models, paw pressure (Randall-Selitto) method; assay type: in vivo, Spraugue-Dawley rats; settings: for pain threshold of the nerve-injured paw: started after hyperalgesia confirmed, FIG. 2
Description: as §1, with “for use” for “and used”
As the test substance, 3-(15-hydroxypentadecyl)-2,4,4-trimethyl-2-cyclohexen-1-one (hereafter, also referred to as compound 24) synthesized in Preparation Example 24 was used.
Rats showing reduction of pain threshold by 30% or more in the nerve-injured paw, and change in pain threshold within a range of 5% in the normal paw, as compared to preoperative values, were used for the experiment. Prior to administration of the test substance, the nerve-injured paw (operated side) and the normal paw (untreated side) of each individual were subjected to an analgesic test. Furthermore, the test substance-administered group was intraperitoneally administered with a single dose of the test substance (8 mg/kg, 24 mg/kg, and 40 mg/kg) everyday for a week. The control group was administered with the vehicle of the test substance during the same period. After one week from the start of administration, the nerve-injured paw (operated side) and the normal paw (untreated side) of each rat were again subjected to an analgesic test.
The paw pressure (Randall-Selitto) method using pressure stimuli was employed as the analgesic test. Mechanical pressure stimuli were applied on the dorsal portion of the rat hind paw by an analgesimeter, and the minimum value of pressure stimulus at which vocalization or withdrawal occurred was defined as pain threshold. In the measurement of pain threshold according to the paw pressure method, a rat has to be held down and restrained. […]

[3] = system: STZ-induced diabetic model mice; assay: Improving effect in dullness models, formaldehyde-induced licking and biting behavior; assay type: in vivo, ddY mice; settings: a week of intraperitoneal administration (8, 24 and 40 mg/kg) with the STZ administration; 1% formaldehyde into plantar; FIG. 4
Description: Four-week-old male ddY mice were administered with a single dose of streptozotocin (hereunder, also referred to as STZ) (200 mg/kg) by tail vein injection, everyday for a week. For 24 hours after STZ administration, the rats were allowed to freely take a 10% glucose solution instead of drinking water, and then allowed to freely take distilled water. As the test substance, compound 24 synthesized in Preparation Example 24 was used. Concurrently with the start of STZ administration, the test substance-administration group was intraperitoneally administered with a single dose of the test substance (8 mg/kg, 24 mg/kg, and 40 mg/kg) everyday for a week. The control group was administered with the vehicle of the test substance during the same period. The blood glucose level of the tail venous blood was measured by a blood glucose meter (DEXTER ZII: Bayer Medical Ltd.). Individuals with a blood sugar level of 400 mg/dL or more, were used for the experiment. After a week of STZ administration, the mice were subcutaneously injected with 1% formaldehyde solution (20 μL) into the plantar of the left hind paw. The total time spent for licking (licking of plantar of the left hind paw) behavior and biting (biting of plantar of the left hind paw) behavior was scored every 5 minutes after administration, for 60 minutes.

O=C1C=C(CCCCCCCCCCCO)CCC1 [Preparation Example 2, 3-(11-hydroxyundecyl)-2-cyclohexen-1-one]
melting point: 34 to 35 °C

O=C1C=C(CCCCCCCCCCCCCCO)CCC1 [Preparation Example 5, 3-(14-hydroxytetradecyl)-2-cyclohexen-1-one]
melting point: 44 to 45 °C

CC1=C(CCCCCCCCCCCCCCCO)C(C)(C)CCC1=O [compound 24, 3-(15-hydroxypentadecyl)-2,4,4-trimethyl-2-cyclohexen-1-one]
pain threshold of the nerve-injured paw after the Bennett operation ([1]; 8 mg/kg intraperitoneally from the day of the operation, everyday for a week, FIG. 3): no significant change in pain threshold | pain threshold of the normal paw ([1]; normal paw (untreated side), 8 mg/kg intraperitoneally everyday for a week): no significant change in pain threshold | pain threshold of the nerve-injured paw ([2]; 24 mg/kg intraperitoneally once a day for a week): significant increase in pain threshold | pain threshold of the nerve-injured paw ([2]; 40 mg/kg intraperitoneally once a day for a week): significant increase in pain threshold | pain threshold of the normal paw ([2]; normal paw (untreated side), after the one-week administration period, intraperitoneal): no significant change in pain threshold | Phase II pain response (total time spent for licking and biting behavior) [3]: improved Phase II torpor

O=C1C=C(CCCCCCCCCCCCCO)CCC1 [Preparation Example 4, 3-(13-hydroxytridecyl)-2-cyclohexen-1-one]
melting point: 42 to 43 °C

O=C1C=C(CCCCCCCCCCCCO)CCC1 [Preparation Example 3, 3-(12-hydroxydodecyl)-2-cyclohexen-1-one]
melting point: 35 to 36 °C
